Assays:
[1] = Formulation visual stability (DMA/PG/PEG 300/water); format: physicochemical; settings: 25° C., 10-11 mg/mL in DMA/PG/PEG 300/Water
Description: All formulations were conducted with FDA approved excipients and with high purity material such as USP grade quality. Formulation stability of test articles are performed using HPLC purity method described within analytical section. This formula may be used for oral administration of the compounds described herein; […]. Since these compounds have high solubility in lower pH as described in the solubility study section, the intervenous delivery is performed with 100% phosphate buffer solution of pH 6.5 allowing up to 7 mg/mL concentration. The formulated test articles can be store at 4° C. Prior to dosing, it should be warmed and vortexed for about 1 min to make a homogenous solution. If needed, filter through 0.2 μM syringe filter to maintain clean and sterile.

gut microbiome = test: Microbiome (shotgun metagenomic sequencing) of DSS-induced colitis mice; format: in vivo; settings: for gut microbiome composition (in words): induced colitis conditions
C57BL/6 mice = test: MTD studies in mice; format: in vivo
[2] = test system: colon tissue gene expression; test: Colon tissue gene expression (RNA-Seq) in TNBS-induced colitis mice; format: in vivo; settings: for expression of genes related to inflammatory response: vs untreated
Description: Method: TNBS colitis: C57BL/6 mice (20-22 grams) were fed ad lib and assigned to 4 different groups (n=8/group). After a 72 hr acclimation period the test group groups received 25 mg/kg of test compound PO (gavage) in vehicle daily. A control group received vehicle alone. After 24 hrs, mice were weighed and TNBS was injected intra-colonically using 5 cm of polyethylene (¼ inch) tubing. Mice were then treated with the test compounds and weighed daily for 4 days. Mice were sacrificed on day 4 and clinical score was assessed. Intestinal tissue for and blood were also collected. Tissues were either flash frozen and kept in −80° C. for RNA and protein isolation or placed in 10% formalin solution for future histological analysis. Blood was spun at 5K rpm for 5 min and serum was collected and kept at −20° C. for multiplex cytokine analysis.
RNA Sequencing: RNA was extracted from mouse colon tissue at Athos Therapeutics and was sent at Zymo Research or the Technology Center for Genomics & Bioinformatics at UCLA for sequencing and partial bioinformatics analysis.
Libraries for RNA-Seq were prepared with KAPA Stranded mRNA-Seq Kit. The workflow consists of mRNA enrichment and fragmentation, first strand cDNA synthesis using random priming, followed by second strand synthesis converting cDNA:RNA hybrid to double-stranded cDNA (dscDNA), and incorporates dUTP into the second cDNA strand. cDNA generation is followed by end repair to generate blunt ends, A-tailing, adaptor ligation, and PCR amplification. Different adaptors were used for multiplexing samples in one lane. Sequencing was performed on NovaSeq6000 (SP) for a PE 2×150 run. Data quality checking was done on Illumina SAV. Data de-multiplexing was performed with Illumina Bcl2fastq v 2.19.1.403 software. The reads were mapped by STAR 2.27a and read counts per gene were quantified using the mouse Ensembl Musmusculus.GRCm38.97 GTF file. In Partek Flow (Partek® Flow® software, v7.0 Copyright©. 2019 Partek Inc., St. Louis, Mo., USA) read counts were normalized by CPM +1.0E-4.
Gene differential expression analysis and downstream gene enrichment analysis was performed at Athos Therapeutics. The DESeq2 R package was used for differential expression analysis. DESeq2 FDR cutoff: 0.05, DESeq2 Log 2FC cutoff: 1 (FC cutoff: 2). Gene enrichment analysis was performed using the Enrichr) (https://maayanlab.cloud/Enrichr/enrich) and gprofiler (https://biit.cs.ut.ee/gprofiler/gost) platforms.

Naïve human CD4 T cells = test: Differentiation of naïve human CD4 T cells into FoxP3+ Tregs (flow cytometry); format: cell-based; settings: 500 nM, 5 days; for Tregs (%): anti-CD3 and anti-CD28 100 ng/ml, CD4highFoxP3high population; for increase of the number of Tregs over untreated: baseline 3.2%
Description: (§1) Naïve human CD4 T cells were cultured in DMEM supplemented with 10% heat-inactivated FBS, 2 mM glutamine, 100 U/ml penicillin, 100 μg/ml streptomycin and 25 mM Hepes. Human CD4 T cells were treated with anti-CD3 and anti-CD28 (100 ng/ml) together with small molecule compounds (500 nM) for 5 days. FoxP3 and CD4 positive cells were stained and imaged in a BD LSRII flow cytometer. The gated area represents the percentage CD4^highFoxP3^high immune cell population. Furthermore, the same small molecule compounds were evaluated for their effects on IL17 protein levels in human CD4 T cells by using an ELISA assay (R&D systems, cat no. D1700).

IL17 = IL17 protein levels in human CD4 T cells (ELISA); format: cell-based
Description: as §1

J82 = J82 bladder cancer cell viability (Real-Time-Glo); format: cell-based; settings: Homo sapiens, 72 hr, read-out: IC50, Cell line: J82
Description: To determine the plating density for cell viability assays, for each cell line, cells were counted and diluted to final densities of 2.5, 5, 10 and 20 thousand per 100 μl of their respective growth media per well in 96 well plates. A Promega Real-Time-Glo cell viability kit was used to determine the optimal concentration for cell plating so that each cell line would be within the linear part of its growth curve after 72 hrs in culture. For the determination of test compound IC50s different cancer cell lines were plated in 96 well plates in the pre-determined optimal density for each cell line. Test compounds were then added at different concentrations for the creation of six-point curve and cell density was determined using the Promega Real-Time-Glo cell viability kit after 24, 48, and 72 hrs in culture. Test compound 72 hr IC50s were calculated using the AAT Bioquest IC50 calculator.

[3] = DSS colitis mice, 25 mg/kg PO daily, p<0.05

COc1cc2c(NC3CCS(=O)(=O)CC3)nc(N3CCC(F)(F)CC3)nc2cc1OCCCN1CCCC1 [Compound 1, 4-((2-(4,4-difluoropiperidin-1-yl)-6-methoxy-7-(3-(pyrrolidin-1-yl)propoxy)quinazolin-4-yl)amino)tetrahydro-2H-thiopyran 1,1-dioxide]
Appearance ([1]; 30 min): clear
Appearance ([1]; 1 h): clear
Appearance ([1]; 5 h): clear
Appearance ([1]; 24 h): clear
Appearance ([1]; 7 d): clear
Bacteroidetes phylum abundance (gut microbiome; [3]): increase
Firmicutes phylum abundance (gut microbiome; [3]): significant decrease
Verrucomicrobia phylum abundance (gut microbiome; [3]): increase
gut microbiome composition (in words) (gut microbiome): significantly altered the gut microbiome composition and shifted it towards eubiosis
effects in weight change (MTD studies) (C57BL/6 mice; mouse, in vivo, po): not cause any effects in weight change

COc1cc2c(NC3CCOCC3)nc(N3CCC(F)(F)CC3)nc2cc1OCCCN1CCCC1 [Compound 2, 2-(4,4-difluoropiperidin-1-yl)-6-methoxy-7-(3-(pyrrolidin-1-yl)propoxy)-N-(tetrahydro-2H-pyran-4-yl)quinazolin-4-amine]
Appearance ([1]; 30 min): clear
Appearance ([1]; 1 h): clear
Appearance ([1]; 5 h): clear
Appearance ([1]; 24 h): clear
Appearance ([1]; 7 d): clear
expression of TNF [2]: significantly reduced expression
expression of infliximab marker genes [2]: significantly reduced expression
expression of pro-inflammatory cytokine and metalloproteinase pathway genes (22-gene signature) [2]: significantly reduced expression
number of inflammatory response genes with significantly reduced expression [2]: > 85 genes
Log2FC 1l6 ([2]; treated vs untreated): −4.82
Log2FC Ccl2 ([2]; treated vs untreated): −2.71
Log2FC Ccl3 ([2]; treated vs untreated): −7.36
Log2FC Ccl7 ([2]; treated vs untreated): −2.73
Log2FC Ccl9 ([2]; treated vs untreated): −1.15
Log2FC Csf3 ([2]; treated vs untreated): −6.66
Log2FC Csf3r ([2]; treated vs untreated): −3.19
Log2FC Cxcl1 ([2]; treated vs untreated): −6.03
Log2FC Cxcl2 ([2]; treated vs untreated): −8.30
Log2FC Cxcl3 ([2]; treated vs untreated): −10.19
Log2FC Cxcl5 ([2]; treated vs untreated): −6.57
Log2FC Il1a ([2]; treated vs untreated): −6.05
Log2FC Il1b ([2]; treated vs untreated): −6.17
Log2FC Il11 ([2]; treated vs untreated): −4.05
Log2FC Il13ra2 ([2]; treated vs untreated): −2.38
Log2FC Mmp3 ([2]; treated vs untreated): −4.47
Log2FC Osm ([2]; treated vs untreated): −4.67
Log2FC Osmr ([2]; treated vs untreated): −1.24
Log2FC Ptgs2 ([2]; treated vs untreated): −3.18
Log2FC Stc1 ([2]; treated vs untreated): −1.89
Log2FC Tnfrsf11b ([2]; treated vs untreated): −1.66
expression of genes related to inflammatory response [2]: significantly reduced expression levels
Bacteroidetes phylum abundance (gut microbiome; [3]): increase
Proteobacteria phylum abundance (gut microbiome; [3]): increase
gut microbiome composition (in words) (gut microbiome): significantly altered the gut microbiome composition and shifted it towards eubiosis
Tregs (%) (Naïve human CD4 T cells): 20.1%
increase of the number of Tregs over untreated (Naïve human CD4 T cells): 6.28 fold
IL17 protein levels (IL17): do not have an effect

COc1cc2c(Nc3ccncc3)nc(N3CCC(F)(F)CC3)nc2cc1OCCCN1CCCC1 [Compound 7, 2-(4,4-difluoropiperidin-1-yl)-6-methoxy-N-(pyridin-4-yl)-7-(3-(pyrrolidin-1-yl)propoxy)quinazolin-4-amine]
IC50 (J82): 1 to 5 µM

COc1cc2c(NC3CCN(C(C)C)CC3)nc(N3CCC(F)(F)CC3)nc2cc1OCCCN1CCCC1 [Compound 400, 2-(4,4-difluoropiperidin-1-yl)-N-(1-isopropylpiperidin-4-yl)-6-methoxy-7-(3-(pyrrolidin-1-yl)propoxy)quinazolin-4-amine, reference compound]
IC50 (J82): 5 to 10 µM
Appearance ([1]; 30 min): clear
Appearance ([1]; 1 h): clear
Appearance ([1]; 5 h): clear
Appearance ([1]; 24 h): clear
Appearance ([1]; 7 d): clear
expression of genes related to inflammatory response [2]: did not have any effect
Tregs (%) (Naïve human CD4 T cells): 4.7%
increase of the number of Tregs over untreated (Naïve human CD4 T cells): 1.46 fold
IL17 protein levels (IL17): significantly suppresses
effects in weight change (MTD studies) (C57BL/6 mice; 50 mg/kg daily oral): not cause any effects in weight change
